# From ChEMBL document CHEMBL1150051, “Antiviral (RNA) activity of selected Amaryllidaceae isoquinoline constituents and synthesis of related substances” (J Nat Prod, 1992)
# What was measured:
# [1] = Therapeutic index, ratio of TC50 for african green monkey Vero cells to IC50 for Punta toro virus Adames; assay type: cell-based; conditions: read-out: TI
# [2] = Therapeutic index, ratio of TC50 for african green monkey Vero cells to IC50 for Japanese encephalitis virus Nakayama; assay type: cell-based; conditions: read-out: TI
# [3] = test system: Sandfly fever Sicilian virus; assay: Antiviral activity against Sandfly fever sicilian virus infected in african green monkey Vero cells assessed as inhibition of virus-induced cytopathic effect by MTT assay; assay type: functional, organism-based
# [4] = test system: Japanese encephalitis virus; assay: Antiviral activity against Japanese encephalitis virus Nakayama infected in african green monkey Vero cells assessed as inhibition of virus-induced cytopathic effect by MTT assay; assay type: functional, organism-based
# [5] = test system: Punta Toro virus; assay: Antiviral activity against Punta Toro virus Adames infected in african green monkey Vero cells assessed as inhibition of virus-induced cytopathic effect by MTT assay; assay type: functional, organism-based
# [6] = test system: Yellow fever virus; assay: Antiviral activity against Yellow fever virus Ashibi infected in african green monkey Vero cells assessed as inhibition of virus-induced cytopathic effect by MTT assay; assay type: functional, organism-based
# [7] = test system: Rift Valley fever virus; assay: Antiviral activity against Rift Valley fever virus infected in african green monkey Vero cells after 6 days by plaque reduction assay; assay type: functional, organism-based
# [8] = Therapeutic index, ratio of TC50 for african green monkey Vero cells to IC50 for Yellow fever virus Ashibi; assay type: cell-based; conditions: read-out: TI
# [9] = Therapeutic index, ratio of TC50 for african green monkey Vero cells to IC50 for Rift valley fever virus; assay type: cell-based; conditions: read-out: TI
# [10] = Therapeutic index, ratio of TC50 for african green monkey Vero cells to IC50 for Dengue type 4 virus; assay type: cell-based; conditions: read-out: TI
# [11] = test system: dengue virus type 4; assay: Antiviral activity against Dengue virus type 4 infected in african green monkey Vero cells after 6 days by plaque reduction assay; assay type: functional, organism-based
# [12] = Therapeutic index, ratio of TC50 for african green monkey Vero cells to IC50 for Sandfly fever sicilian virus; assay type: cell-based; conditions: read-out: TI
# [13] = Japanese encephalitis virus, Nakayama, Vero, read-out: IC50
# [14] = Punta Toro virus, Adames, Vero, read-out: IC50
# [15] = Rift Valley fever virus, Vero, 144 h, read-out: IC50
# [16] = Yellow fever virus, Ashibi, Vero, read-out: IC50
# [17] = Dengue virus, Vero, 144 h, read-out: IC50
# [18] = sandfly fever Sicilian virus, Vero, read-out: IC50
SMILES,selectivity ratio [1],selectivity ratio [2],inhibition (INH) [3],"IC50 [4, 13]","IC50 [5, 14]",inhibition (INH) [6],"IC50 [7, 15]",IC50 ([3]; vero),selectivity ratio [8],"IC50 [6, 16]",selectivity ratio [9],selectivity ratio [10],"IC50 [11, 17]",IC50 ([7]; vero),IC50 ([4]; vero),IC50 ([5]; vero),IC50 ([6]; vero),"IC50 [3, 18]",selectivity ratio [12],IC50 ([11]; vero)
CC(=O)Oc1c2c(cc3c1C(=O)N[C@H]1[C@H](OC(C)=O)[C@H](OC(C)=O)[C@@H](OC(C)=O)C[C@@H]31)OCO2,6.4,3.5,25%,8.1 µg/mL,12 µg/mL,25%,,,,,,,,,,,,,,
O=c1[nH]c2c(c3cc4c(c(O)c13)OCO4)C[C@H](O)[C@@H](O)[C@H]2O [ISONARCICLASINE],5.1,2.1,,0.72 µg/mL,0.28 µg/mL,,3.3 µg/mL,Not Active,4.1,0.22 µg/mL,7.6,18.5,0.27 µg/mL,,,,,,,
CC(=O)O[C@@H]1[C@@H](OC(C)=O)[C@H](O)[C@@H]2c3cc4c(cc3C(=O)N[C@H]2[C@@H]1OC(C)=O)OCO4,4.2,3.6,,4.5 µg/mL,2.5 µg/mL,,,Not Active,3.8,2.2 µg/mL,,> 20,< 5 µg/mL,Not Active,,,,,,
O=C1N[C@@H]2C(=C[C@H](O)[C@@H](O)[C@H]2O)c2cc3c(c(O)c21)OCO3 [NARCICLASINE],3.9,4.08,,0.008 µg/mL,0.0074 µg/mL,,,Not Active,6.1,0.006 µg/mL,,4,0.015 µg/mL,Not Active,,,,,,
O=C1N[C@H]2C[C@@H](O)[C@@H](O)[C@H](O)[C@@H]2c2cc3c(cc21)OCO3,,,,,,,,Not Active,,,,,,Not Active,Not Active,Not Active,Not Active,,,
O=C1N[C@H]2[C@H](O)[C@H](O)[C@@H](O)C[C@H]2c2cc3c(c(O)c21)OCO3,3.6,5.1,25%,0.96 µg/mL,2.2 µg/mL,,1.4 µg/mL,,3.9,1.3 µg/mL,3.6,> 2,2.5 µg/mL,,,,,,,
CC(=O)O[C@@H]1[C@@H](O)[C@@H](O)[C@@H]2NC(=O)c3cc4c(cc3[C@H]2[C@H]1O)OCO4 [LYCORICIDINE MONOACETATE],2.1,3.3,,3.3 µg/mL,4.7 µg/mL,,5.5 µg/mL,Not Active,4.3,4.8 µg/mL,4.4,33.3,1.5 µg/mL,,,,,,,
O=C1N[C@H]2[C@H](O)[C@H](O)[C@@H](O)C[C@@H]2c2cc3c(cc21)OCO3,5.9,5.6,,0.039 µg/mL,0.057 µg/mL,,0.25 µg/mL,Not Active,7.5,0.037 µg/mL,2,5,0.5 µg/mL,,,,,,,
CO[C@@H]1C=C[C@@]23c4cc5c(cc4C(O)O[C@H]2CN(C)[C@H]3C1)OCO5 (some centres undefined) [PRETAZETTINE],3.7,3.8,,0.6 µg/mL,0.61 µg/mL,,2.9 µg/mL,,5.6,0.5 µg/mL,3.5,,,,,,,0.82 µg/mL,3,
CC(=O)O[C@@H]1[C@H](OC(C)=O)[C@@H](OC(C)=O)C=C2c3cc4c(cc3C(=O)N[C@H]21)OCO4 [LYCORICIDINE TRIACETATE],,,,,,,,Not Active,,,,,,Not Active,Not Active,Not Active,Not Active,,,Not Active
COc1cc2c(cc1O)[C@@H]1[C@H](O)[C@@H](O)C=C3CCN(C2)[C@H]31 [PSEUDOLYCORINE],3.9,5,,0.28 µg/mL,0.6 µg/mL,,0.63 µg/mL,Not Active,3.7,0.35 µg/mL,6,2.6,0.39 µg/mL,,,,,,,
O=c1[nH]c2c(c3cc4c(cc13)OCO4)C[C@H](O)[C@@H](O)[C@H]2O,3.7,,,,7.2 µg/mL,,10 µg/mL,Not Active,4.2,5.7 µg/mL,5,5.9,8.5 µg/mL,,Not Active,,,,,
O=C1N[C@H]2[C@H](O)[C@H](O)[C@@H](O)C[C@H]2c2cc3c(cc21)OCO3,4.8,4.9,,12.7 µg/mL,14 µg/mL,,,,6.6,9.6 µg/mL,,5.7,4.4 µg/mL,,,,,25 µg/mL,3,
O=C1N[C@H]2C=C[C@@H](O)[C@H](O)[C@@H]2c2cc3c(cc21)OCO3,,,,,,,,Not Active,,,,,,Not Active,Not Active,Not Active,Not Active,,,
O=C1N[C@H]2[C@H](O)[C@H](O)[C@@H](O)C[C@@H]2c2cc3c(c(O)c21)OCO3,3.3,5.6,,0.004 µg/mL,0.008 µg/mL,,,Not Active,> 8.5,< 0.003 µg/mL,,4.2,0.015 µg/mL,,,,,,,
O=C1N[C@H]2CC=C[C@H](O)[C@@H]2c2cc3c(cc21)OCO3,,,,,,,,Not Active,,,,,,Not Active,Not Active,Not Active,Not Active,,,
CC(=O)O[C@@H]1[C@@H](OC(C)=O)[C@H](OC(C)=O)[C@@H]2c3cc4c(cc3C(=O)N[C@H]2[C@@H]1OC(C)=O)OCO4,,2.8,,724 µg/mL,,,,Not Active,3.8,262 µg/mL,,,,Not Active,,Not Active,,,,
O[C@H]1[C@H]2c3cc4c(cc3CN3CCC(=C[C@@H]1O)[C@H]23)OCO4 [LYCORINE],4.6,8.2,,0.33 µg/mL,0.5 µg/mL,,0.93 µg/mL,Not Active,7.3,0.28 µg/mL,5.4,10.4,0.24 µg/mL,,,,,,,
O=C1N[C@H]2C=C[C@@H](O)[C@H](OC3CCCCO3)[C@@H]2c2cc3c(cc21)OCO3 (some centres undefined),,,,,,,,Not Active,,,,,,Not Active,Not Active,Not Active,Not Active,,,
